The subject of this assay is Thoracic aortic rings. In words: Thoracic aortic rings assay. More on the design: species or system rat. As to conditions: for inhibition at 1 µM: 1 μM compound, read-out: Percent Relaxation at 1 μM; for inhibition at 1 µM / inhibition at 3 µM / inhibition at 10 µM: rat thoracic aortic rings contracted with 100 ng/mL phenylephrine; for inhibition at 3 µM: 3 μM compound, read-out: Percent Relaxation at 3 μM; for inhibition at 10 µM: 10 μM compound, read-out: Percent Relaxation at 10 μM; for EC50: relaxation of rat thoracic aortic rings contracted with 100 ng/mL phenylephrine, read-out: Aortic Ring EC50. As for the experimental part:
Thoracic aortic rings were dissected from anesthetized (isoflurane) male Sprague-Dawley rats weighing 275-299 g. Tissues were immediately transferred to ice-cold Krebs-Henseleit solution, which had been aerated with 95% O2 and 5% CO2 for 30 minutes. Following removal of connective tissue, aortic sections were cut into 4 rings (˜2 mm each) and suspended on 2 L-shaped hooks, with one hook fixed at the bottom of the tissue bath (Schuler Organ Bath, Harvard Apparatus) and the other connected to a force transducer (F30 Force Transducer, Harvard Apparatus). Baths contained Krebs Henseleit solution (10 mL) heated to 37° C. and aerated with 95% O2 and 5% CO2. Rings were brought to an initial tension of 0.3-0.5 g and gradually raised to a resting tension of 1.0 g over 60 minutes. Rings were rinsed with Krebs Henseleit solution (heated to 37° C. and aerated with 95% 02 and 5% CO2) at 15 minute intervals until a stable baseline was obtained. Rings were considered to be stable after a resting tension of 1.0 g was maintained (for approximately 10 minutes) without need for adjustment. Rings were then contracted with 100 ng/mL phenylephrine by adding 100 μL of a 10 μg/mL phenylephrine stock solution. Tissues achieving a stable contraction were then treated in a cumulative, dose dependent manner with test compounds prepared in dimethylsulfoxide (DMSO). In some cases, tissues were rinsed three times over a 5 minute period with Krebs-Heinseleit's solution (heated to 37° C. and aerated with 95% 02 and 5% CO2), allowed to stabilize at baseline, and then used for characterization of other test articles or DMSO effects. All data were collected using the HSE-ACAD software provided by Harvard Apparatus. Percent relaxation effects were calculated in Microsoft Excel using the recorded tension value of 100 ng/mL phenylephrine treatment as 0% inhibition and, after washing the tissue with buffer, the original resting tension of tissue is used as 100% inhibition. EC50 values were calculated from concentration-response curves generated with GraphPad Prism Software.
The biological data for some of the compounds of Formula IA and Formula IB, in comparison with the prior art compound, BAY 41-2272, as the reference compound, determined by the thoracic aorta ring assay are presented in Table 6 below.

Consider 16 molecules from patent US9061030B2, “sGC stimulators” (IRONWOOD PHARMACEUTICALS, INC., priority 2010, dated 2015).

One may read the EC50 as the concentration giving half of the maximal effect.

SMILES strings stand for the structures.

As to `Fc1ccccc1Cn1nc(-c2ncccn2)nc1-c1cocn1` [Compound I-46], the inhibition at 1 µM lay within 20 to 40%, the inhibition at 3 µM was in the range of 60 to 80%, the inhibition at 10 µM was in the range of 80 to 100% and the EC50 was 2000 to 3000 nM.

In the case of `Fc1ccccc1Cn1nc(-c2ccccn2)nc1-c1ccccn1` [Compound I-1], the inhibition at 1 µM was in the range of 20 to 40%, the inhibition at 3 µM lay in the range of 60 to 80%, the inhibition at 10 µM fell in the range of 100 to 120% and the EC50 was 1000 to 2000 nM.

With `Fc1ccccc1Cn1nc(-c2ccccn2)nc1-c1cscn1` [Compound I-4], the inhibition at 1 µM was in the range of 60 to 80%, the inhibition at 3 µM is 100 to 120% and the EC50 is less than 1000 nM.

With `COC(=O)N(C)c1c(N)nc(-c2nc(-c3nccs3)n(Cc3ccccc3F)n2)nc1N` [Compound I-61, methyl 4,6-diamino-2-(1-(2-fluorobenzyl)-5-(thiazol-2-yl)-1H-1,2,4-triazol-3-yl)pyrimidin-5-yl(methyl)carbamate], the inhibition at 1 µM was 60 to 80%, the inhibition at 3 µM fell in the range of 80 to 100% and the EC50 is less than 1000 nM.

As to `Fc1ccccc1Cn1nc(-c2ccccn2)nc1-c1cocn1` [Compound I-12, 4-(1-(2-fluorobenzyl)-3-(pyridin-2-yl)-1H-1,2,4-triazol-5-yl)oxazole], the inhibition at 1 µM lay in the range of 40 to 60%, the inhibition at 3 µM lay in the range of 80 to 100%, the inhibition at 10 µM lay within 100 to 120% and the EC50 is less than 1000 nM.

For the molecule `Nc1ccnc(-c2nc(-c3nccs3)n(Cc3ccccc3F)n2)c1` [Compound I-44], the inhibition at 1 µM is 80 to 100%, the inhibition at 3 µM was in the range of 100 to 120%, the inhibition at 10 µM lay within 100 to 120% and the concentration for a half-maximal effect (EC50) is less than 1000 nM.

As to `Fc1ccccc1Cn1nc(-c2ncccn2)nc1-c1cscn1` [Compound I-3], the inhibition at 1 µM fell in the range of 40 to 60%, the inhibition at 3 µM was 80 to 100%, the inhibition at 10 µM lay in the range of 100 to 120% and the 50% effective concentration (EC50) lay in the range of 1000 to 2000 nM.

On to `Fc1ccccc1Cn1nc(-c2ncccn2)nc1-c1nccs1` [Compound I-30], for which the inhibition at 1 µM lay in the range of 20 to 40%, the inhibition at 3 µM was in the range of 60 to 80%, the inhibition at 10 µM fell in the range of 100 to 120% and the concentration giving a half-maximal response (EC50) was 2000 to 3000 nM.

`Nc1ccnc(-c2nc(-c3cscn3)n(Cc3ccccc3F)n2)c1` [Compound I-53, 2-(1-(2-fluorobenzyl)-5-(thiazol-4-yl)-1H-1,2,4-triazol-3-yl)pyridin-4-amine]: the inhibition at 1 µM is 20 to 40%, the inhibition at 3 µM is 80 to 100%, the inhibition at 10 µM is 100 to 120% and the EC50 lay in the range of 1000 to 2000 nM.

`Fc1ccccc1Cn1nc(-c2ccccn2)nc1-n1cncn1` [Compound I-50, 2′-(2-fluorobenzyl)-5′-(pyridin-2-yl)-2′H-1,3′-bi(1′,2′,4-triazole)]: the inhibition at 1 µM fell in the range of 10 to 20%, the inhibition at 3 µM lay within 20 to 40% and the inhibition at 10 µM lay within 60 to 80%.

Consider `Fc1ccccc1Cn1nc(-c2ccccn2)nc1-c1nccs1` [Compound I-25], for which the inhibition at 1 µM fell in the range of 40 to 60%, the inhibition at 3 µM lay within 80 to 100%, the inhibition at 10 µM is 100 to 120% and the EC50 is less than 1000 nM.

Turning to `Fc1ccccc1Cn1nc(-c2nccs2)nc1-c1cscn1` [Compound I-41], the inhibition at 1 µM lay within 80 to 100%, the inhibition at 3 µM lay within 100 to 120%, the inhibition at 10 µM fell in the range of 100 to 120% and the 50% effective concentration (EC50) is less than 1000 nM.

With `Fc1ccccc1Cn1nc(-c2ccccn2)nc1-c1ncco1` [Compound I-6], the inhibition at 1 µM was in the range of 20 to 40%, the inhibition at 3 µM lay in the range of 60 to 80%, the inhibition at 10 µM fell in the range of 100 to 120% and the EC50 lay in the range of 1000 to 2000 nM.

Regarding `Nc1ccnc(-c2nc(-c3nccs3)n(Cc3ccccc3F)n2)n1` [Compound I-48, 2-(1-(2-fluorobenzyl)-5-(thiazol-2-yl)-1H-1,2,4-triazol-3-yl)pyrimidin-4-amine], the inhibition at 1 µM was 40 to 60%, the inhibition at 3 µM lay in the range of 80 to 100%, the inhibition at 10 µM was in the range of 100 to 120% and the EC50 fell in the range of 1000 to 2000 nM.

`Fc1ccc(-c2nc(-c3nccs3)n(Cc3ccccc3F)n2)nc1` [Compound I-38]: the inhibition at 1 µM fell in the range of 40 to 60%, the inhibition at 3 µM fell in the range of 80 to 100%, the inhibition at 10 µM fell in the range of 100 to 120% and the EC50 is 1000 to 2000 nM.

`Fc1ccccc1Cn1nc(-c2cscn2)nc1-c1nccs1` [Compound I-40]: the inhibition at 1 µM was in the range of 20 to 40%, the inhibition at 3 µM was 60 to 80%, the inhibition at 10 µM lay within 100 to 120% and the EC50 lay within 1000 to 2000 nM.
